# In publication PMC5697638, “Identification of a Potent Phosphoinositide 3‐Kinase Pan Inhibitor Displaying a Strategic Carboxylic Acid Group and Development of Its Prodrugs” (Chemmedchem, 2017):
# What was measured:
# [1] = target: T1, hPI3Kβ (PIK3CB wt/PIK3R1) (Homo sapiens, UniProt P42338); experiment: lipid kinase assay (ADP-Glo), PI3Kβ; format: biochemical
# T1 construct: purchased ProQinase, Germany 1168‐1165‐1
# [2] = target: T2, hPI3Kδ (PIK3CD/PIK3R1) (Homo sapiens, UniProt O00329); experiment: lipid kinase assay (ADP-Glo), PI3Kδ; format: biochemical
# T2 construct: purchased ProQinase, Germany 1162–1165‐1
# T2 sequence (O00329 whole entry): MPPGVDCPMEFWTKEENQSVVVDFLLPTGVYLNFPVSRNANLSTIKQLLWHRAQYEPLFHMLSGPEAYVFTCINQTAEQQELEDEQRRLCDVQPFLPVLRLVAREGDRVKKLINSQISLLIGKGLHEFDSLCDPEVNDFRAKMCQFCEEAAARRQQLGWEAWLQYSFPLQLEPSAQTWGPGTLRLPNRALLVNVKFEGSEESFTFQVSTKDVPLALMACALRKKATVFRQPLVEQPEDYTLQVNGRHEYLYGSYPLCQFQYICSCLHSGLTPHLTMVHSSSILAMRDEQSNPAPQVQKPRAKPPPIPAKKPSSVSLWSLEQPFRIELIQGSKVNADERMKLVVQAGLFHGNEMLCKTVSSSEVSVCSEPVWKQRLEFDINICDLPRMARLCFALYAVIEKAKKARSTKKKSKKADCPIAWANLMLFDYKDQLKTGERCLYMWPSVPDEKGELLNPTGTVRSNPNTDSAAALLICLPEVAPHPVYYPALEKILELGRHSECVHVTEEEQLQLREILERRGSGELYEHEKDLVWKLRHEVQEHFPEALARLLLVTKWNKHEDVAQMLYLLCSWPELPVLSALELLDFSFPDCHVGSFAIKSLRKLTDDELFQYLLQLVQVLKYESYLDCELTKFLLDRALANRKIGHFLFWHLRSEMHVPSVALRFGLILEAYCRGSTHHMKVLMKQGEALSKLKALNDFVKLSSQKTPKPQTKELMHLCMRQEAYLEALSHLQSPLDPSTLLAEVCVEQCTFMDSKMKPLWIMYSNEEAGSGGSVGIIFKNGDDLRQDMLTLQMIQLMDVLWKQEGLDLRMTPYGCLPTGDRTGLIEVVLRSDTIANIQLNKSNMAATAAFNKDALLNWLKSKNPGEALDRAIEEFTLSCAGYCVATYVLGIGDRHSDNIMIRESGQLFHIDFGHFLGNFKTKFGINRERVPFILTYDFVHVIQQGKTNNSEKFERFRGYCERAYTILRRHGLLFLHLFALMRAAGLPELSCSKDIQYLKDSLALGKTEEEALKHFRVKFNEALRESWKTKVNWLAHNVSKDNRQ
# T2 sequence (P27986 whole entry partner): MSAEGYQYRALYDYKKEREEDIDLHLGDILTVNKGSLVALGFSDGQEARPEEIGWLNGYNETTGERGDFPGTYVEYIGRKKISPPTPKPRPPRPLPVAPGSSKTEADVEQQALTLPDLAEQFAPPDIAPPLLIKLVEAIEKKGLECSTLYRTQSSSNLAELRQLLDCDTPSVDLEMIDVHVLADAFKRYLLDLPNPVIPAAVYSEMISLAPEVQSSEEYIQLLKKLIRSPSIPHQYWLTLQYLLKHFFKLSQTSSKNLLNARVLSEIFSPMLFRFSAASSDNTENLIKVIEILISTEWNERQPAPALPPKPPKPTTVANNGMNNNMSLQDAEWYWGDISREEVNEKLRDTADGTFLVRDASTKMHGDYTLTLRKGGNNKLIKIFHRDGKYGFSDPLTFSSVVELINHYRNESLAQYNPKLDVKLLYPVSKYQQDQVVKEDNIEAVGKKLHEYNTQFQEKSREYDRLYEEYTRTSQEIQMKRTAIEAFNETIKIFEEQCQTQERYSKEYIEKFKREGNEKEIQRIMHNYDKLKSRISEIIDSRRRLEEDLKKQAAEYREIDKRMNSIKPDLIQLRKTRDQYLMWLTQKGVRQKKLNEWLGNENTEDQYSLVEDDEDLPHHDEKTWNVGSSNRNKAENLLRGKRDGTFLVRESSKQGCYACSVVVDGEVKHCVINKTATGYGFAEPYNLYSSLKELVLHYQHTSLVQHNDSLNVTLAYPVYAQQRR
# [3] = target: hPI3K‐C2α (PIK3C2A) (Homo sapiens, UniProt O00443); experiment: lipid kinase assay (ADP-Glo), PI3K-C2α; format: biochemical; conditions: Table 2; mean of at least three determinations, 95 % confidence intervals; read-out: IC50 PI3Kc2α
# Sequence of hPI3K‐C2α (PIK3C2A) (O00443 whole entry): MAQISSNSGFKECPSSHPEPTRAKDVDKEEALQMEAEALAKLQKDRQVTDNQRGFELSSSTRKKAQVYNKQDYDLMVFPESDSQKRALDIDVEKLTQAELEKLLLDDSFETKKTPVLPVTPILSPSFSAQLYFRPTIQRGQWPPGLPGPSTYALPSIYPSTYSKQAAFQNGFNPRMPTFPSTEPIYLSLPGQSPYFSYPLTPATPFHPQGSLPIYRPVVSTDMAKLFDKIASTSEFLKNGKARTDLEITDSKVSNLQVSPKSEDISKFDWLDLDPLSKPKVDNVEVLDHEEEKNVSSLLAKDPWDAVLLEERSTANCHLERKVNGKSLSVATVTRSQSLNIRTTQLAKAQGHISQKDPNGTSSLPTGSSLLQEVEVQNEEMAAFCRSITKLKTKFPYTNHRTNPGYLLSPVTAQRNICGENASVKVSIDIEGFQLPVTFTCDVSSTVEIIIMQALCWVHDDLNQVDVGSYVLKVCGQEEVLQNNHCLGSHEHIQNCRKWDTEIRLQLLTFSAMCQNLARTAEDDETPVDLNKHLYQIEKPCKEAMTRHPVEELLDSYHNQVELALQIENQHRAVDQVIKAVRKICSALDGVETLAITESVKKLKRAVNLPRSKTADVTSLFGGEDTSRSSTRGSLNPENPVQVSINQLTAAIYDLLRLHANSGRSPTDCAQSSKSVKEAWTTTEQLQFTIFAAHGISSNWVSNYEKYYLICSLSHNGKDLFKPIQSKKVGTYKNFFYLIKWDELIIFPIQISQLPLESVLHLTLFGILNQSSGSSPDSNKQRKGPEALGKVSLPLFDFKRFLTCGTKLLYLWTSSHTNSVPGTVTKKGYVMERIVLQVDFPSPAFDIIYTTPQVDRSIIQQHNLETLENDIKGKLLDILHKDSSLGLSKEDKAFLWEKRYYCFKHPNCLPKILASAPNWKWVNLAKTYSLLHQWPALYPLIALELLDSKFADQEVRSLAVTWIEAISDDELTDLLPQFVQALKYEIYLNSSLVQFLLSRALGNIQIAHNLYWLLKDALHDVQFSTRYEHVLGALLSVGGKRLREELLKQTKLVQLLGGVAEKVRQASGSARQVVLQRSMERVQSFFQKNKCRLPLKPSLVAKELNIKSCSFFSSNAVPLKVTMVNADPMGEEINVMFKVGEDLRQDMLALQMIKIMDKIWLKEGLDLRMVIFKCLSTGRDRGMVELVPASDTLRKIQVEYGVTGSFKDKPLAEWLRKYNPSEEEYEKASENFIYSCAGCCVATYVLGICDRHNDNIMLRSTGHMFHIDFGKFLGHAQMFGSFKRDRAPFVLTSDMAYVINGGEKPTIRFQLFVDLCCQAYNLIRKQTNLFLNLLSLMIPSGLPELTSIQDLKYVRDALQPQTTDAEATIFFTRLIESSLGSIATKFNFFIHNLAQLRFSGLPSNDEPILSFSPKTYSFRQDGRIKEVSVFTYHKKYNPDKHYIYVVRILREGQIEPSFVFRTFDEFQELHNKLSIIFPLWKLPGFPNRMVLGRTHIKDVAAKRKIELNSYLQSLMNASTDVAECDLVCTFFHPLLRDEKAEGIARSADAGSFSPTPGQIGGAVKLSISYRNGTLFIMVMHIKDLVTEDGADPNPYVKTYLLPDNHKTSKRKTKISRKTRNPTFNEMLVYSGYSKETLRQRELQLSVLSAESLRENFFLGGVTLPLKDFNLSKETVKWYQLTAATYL
# Experimental: In vitro selection, lipid kinase assay: To determine the inhibitory activity of the new molecular entities on PI3K enzyme, a lipid kinase assay was performed: recombinant proteins (30 ng), human PI3Kα (PIK3CA/PIK3R1, #1161‐1165‐1 ProQinase–Germany), hPI3Kβ (PIK3CB wt/PIK3R1, #1168‐1165‐1 ProQinase, Germany), hPI3Kγ (PIK3CG, #1163‐0000‐1 ProQinase, Germany), hPI3Kδ (PIK3CD/PIK3R1, #1162–1165‐1 ProQinase, Germany), hPI3K‐C2α (PIK3C2A, #14‐906 Merck Millipore_Merck KGaA, Germany), hPI3K‐C2β (PIK3C2B, #14‐907 Merck Millipore_Merck KGaA, Germany), hPI3K‐c2γ (PIK3C2G, #1207‐0000‐1 ProQinase, Germany), and hVps34 (PIK3C3, #1160‐0000‐1 ProQinase, Germany), were incubated in kinase buffer {12.5 μL; 20 mM Tris‐HCl pH 7.5, 10 mM MgCl2, 10 μM ATP, 0.05 mg mL^−1 BSA, 0.5 mM EDTA, 5 mM HEPES pH 7.5, for PI3Kα,PI3Kβ, PI3Kγ, PI3Kδ, PI3KC‐2α, and PI3KC‐2γ; 15 mM MnCl2, 5 mM EGTA, 100 μM ATP, 50 mM HEPES pH 7.5, 100 mM NaCl, and 0.03 % CHAPS for PI3K‐C2β and VPS34 {BSA=bovine serum albumin; EDTA=ethylenediaminetetraacetic acid; HEPES=4‐(2‐hydroxyethyl)‐1‐piperazineethanesulfonic acid; EGTA=ethylene glycol‐bis(2‐aminoethylether)‐N,N,N′,N′‐tetraacetic acid; CHAPS=3‐[(3‐cholamidopropyl)dimethylammonio]‐1‐propanesulfonate}. In the reaction, the ATP concentration used for different PI3Ks was defined on the basis of the Michaelis–Menten kinetics of each enzyme, provided by the supplier. […]
# [4] = tested on: PI3K/Akt signaling in PC3 cells; experiment: PI3K/Akt signaling, Western blot, PC3 cells; format: cell-based; conditions: 12 h treatment, immunoblot
# Experimental: PC3 cells were treated with the indicated concentrations of 64 for 12 h. At the end of treatment, cells were harvested and total cell lysates were prepared. Immunoblot analysis was performed to analyze the expression levels of p‐Akt (T308 and S473), p‐PRAS40 (T246; a target of Akt), as well as the levels of p‐p70S6K (T389), p‐GSK3α/β (S9), and p‐FOXO3A (T32). The figure is representative of at least three independent experiments.
# Western blot analysis: PC3 cells were seeded in 96‐well plates in the presence of free Dulbecco's modified Eagle's medium (DMEM) high‐glucose GlutaMAX^TM (Gibco), 10 % fetal bovine serum (Invitrogen) supplemented with 5000 U mL^−1 penicillin–streptomycin (Gibco). Subsequently, PC3 cells were incubated with increasing concentrations of […] for 12 h. Cells were then lysed with a lysis buffer containing 20 mM Tris‐HCl pH 8, 138 mM NaCl, 2.7 mM KCl, 1 mM CaCl2, 5 mM EDTA pH 8, 1 mM MgCl2, 5 % glycerol, 1 % Triton X‐100, and protein extracts were analyzed by Western blot analysis. […]
# [5] = metabolic stability in rat liver microsomes (RLM); format: in vitro ADME; conditions: 50 μM substrate, 60 min
# [6] = Table 2, mean of at least three determinations, 95 % confidence intervals
# T1 sequence (P42338 whole entry): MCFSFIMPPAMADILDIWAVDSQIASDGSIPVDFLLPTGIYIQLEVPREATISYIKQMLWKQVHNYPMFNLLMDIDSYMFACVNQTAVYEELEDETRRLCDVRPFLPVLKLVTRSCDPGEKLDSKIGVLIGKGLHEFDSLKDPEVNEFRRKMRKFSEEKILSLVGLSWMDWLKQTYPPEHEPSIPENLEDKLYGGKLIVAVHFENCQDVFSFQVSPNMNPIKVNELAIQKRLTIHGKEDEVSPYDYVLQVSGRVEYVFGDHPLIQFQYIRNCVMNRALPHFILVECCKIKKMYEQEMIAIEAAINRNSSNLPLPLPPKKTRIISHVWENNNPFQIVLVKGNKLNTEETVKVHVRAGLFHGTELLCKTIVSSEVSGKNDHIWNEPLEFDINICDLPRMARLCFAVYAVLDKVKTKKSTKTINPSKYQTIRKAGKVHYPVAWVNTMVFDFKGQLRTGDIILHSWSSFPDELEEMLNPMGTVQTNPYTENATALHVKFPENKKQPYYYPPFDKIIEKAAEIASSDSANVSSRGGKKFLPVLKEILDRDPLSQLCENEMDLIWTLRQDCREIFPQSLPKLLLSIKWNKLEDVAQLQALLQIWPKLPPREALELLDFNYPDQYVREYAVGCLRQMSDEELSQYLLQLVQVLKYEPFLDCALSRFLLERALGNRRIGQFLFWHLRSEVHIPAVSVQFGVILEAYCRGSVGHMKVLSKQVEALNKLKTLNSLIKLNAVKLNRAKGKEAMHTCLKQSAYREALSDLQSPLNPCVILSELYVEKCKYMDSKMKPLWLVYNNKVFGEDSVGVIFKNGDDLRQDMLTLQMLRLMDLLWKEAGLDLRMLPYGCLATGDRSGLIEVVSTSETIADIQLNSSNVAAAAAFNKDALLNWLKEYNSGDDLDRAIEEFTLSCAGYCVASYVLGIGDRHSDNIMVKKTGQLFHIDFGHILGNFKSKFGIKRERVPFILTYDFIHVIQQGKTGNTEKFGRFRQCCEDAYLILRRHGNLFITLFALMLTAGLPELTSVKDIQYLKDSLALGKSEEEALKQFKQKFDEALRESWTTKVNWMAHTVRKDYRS
# T1 sequence (P27986 whole entry partner): as the sequence (P27986 whole entry partner) above
"% residual substrate, RLM (without NADPH) [5]",Compound,"IC50 [1, 6]","inhibition at 1 µM ([1]; determined at 1 μM, at least triplicate, read-out: Inhibitory activity, PI3K isoform β)","IC50 [2, 6]","inhibition at 1 µM ([2]; determined at 1 μM, at least triplicate, read-out: Inhibitory activity, PI3K isoform δ)",IC50 [3],levels of p-Akt and Akt effectors [4]
,"O=C(O)c1cccc(Cn2cc(-c3cccc4c(=O)cc(N5CCOCC5)[nH]c34)nn2)c1 [Compound 37, 3‐{[4‐(2‐Morpholino‐4‐oxo‐1,4‐dihydroquinolin‐8‐yl)‐1H‐1,2,3‐triazol‐1‐yl]methyl}benzoic acid]",0.059 ± 0.015 µM,> 50%,0.019 ± 0.004 µM,> 50%,3.7 ± 1.1 µM,
32%,"COC(=O)c1cccc(Cn2cc(-c3cccc4c(=O)cc(N5CCOCC5)[nH]c34)nn2)c1 [Compound 64, Methyl 3‐{[4‐(2‐morpholino‐4‐oxo‐1,4‐dihydroquinolin‐8‐yl)‐1H‐1,2,3‐triazol‐1‐yl]methyl}benzoate]",,,,,,"attenuated, in a dose‐dependent manner, the levels of p‐Akt"
